Reference: patent US20240352068A1, “VIMENTIN TARGETED PEPTOIDS FOR EARLY DIAGNOSIS AND TREATMENT OF CANCER” (UNIVERSITY OF HOUSTON SYSTEM, priority 2021, published 2024)
Numbered stars: 1 amine (or outer) side, 2 acyl side, 3 side chain; on linkers, the order of the positions; unused ones are H or OH. Bridge positions count the residues as written; N and C are the ends. Square brackets hold non-standard residues; d marks the D form. Peptide text beside a SMILES is read from it. I, II: the chains in the order shown. X1 = O=C(c1ccccc1)c1cccc(N(CC(=O)[*:2])[*:1])c1; N(4-BzPh)Gly = O=C(O)CNc1ccc(C(=O)c2ccccc2)cc1; Gly(N-piperonyl) = O=C(O)CNCc1ccc2c(c1)OCO2; Nleu = CC(C)CNCC(=O)O; Nlys = NCCCCNCC(=O)O; Nme = COCCNCC(=O)O; Sar = CNCC(=O)O

What was measured:
vimentin [1] = molecular target: T1, vimentin (Homo sapiens, UniProt P08670); test: ELISA-like binding assay to vimentin
T1 sequence (P08670 whole entry): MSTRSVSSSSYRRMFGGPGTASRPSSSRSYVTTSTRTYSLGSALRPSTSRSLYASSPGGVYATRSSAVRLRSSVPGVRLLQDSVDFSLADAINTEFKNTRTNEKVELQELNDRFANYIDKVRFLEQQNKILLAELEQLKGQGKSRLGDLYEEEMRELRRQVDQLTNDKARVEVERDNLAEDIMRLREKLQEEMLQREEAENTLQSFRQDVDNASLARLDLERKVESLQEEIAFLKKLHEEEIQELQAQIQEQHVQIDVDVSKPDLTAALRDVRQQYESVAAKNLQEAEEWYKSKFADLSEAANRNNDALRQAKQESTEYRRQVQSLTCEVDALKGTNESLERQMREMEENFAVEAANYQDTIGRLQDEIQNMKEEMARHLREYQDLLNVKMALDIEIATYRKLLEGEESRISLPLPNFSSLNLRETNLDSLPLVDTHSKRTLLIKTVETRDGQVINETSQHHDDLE
Experimental: To identify minimum pharmacophore of JM3A (the most important residues directly needed for protein binding), an alanine/sarcosine scan was done.
Next, Applicant compared binding activity between L2 (D-ala) and JM3ABPD1 by employing ELISA-like binding assay in a concentration between 10 nM to 10 μM.

H1299 cells [2] = test: wound healing (cell migration) assay; type: cell-based; design: inhibition of cell migration: dose or concentration left out as unconfirmed
Experimental: FIGS. 22A-22B provide data related to the characterization of L2 (D-ala), JM3A-BPD1, and JM3A-BP. […] H1299 cells were cultured to form a monolayer in 24-well plate. A scratch was made and wells were treated with L2 (D-ala), JM3A-BPD1. […]
Since vimentin has been identified as an important biomarker of mesenchymal cells during the epithelial-mesenchymal transition (EMT) process. The EMT process can endow epithelial cells with stemness as well as invasion and migration properties. Therefore, Applicant would like to investigate how L2 (D-ala) targeting vimentin can impact cancer stem cells activity. The wound-healing assay indicates the mobility/motility of cells, which is a hallmark measurement of cancer stem cells. The L2 (D-ala), JM3A-BPD1, JM3A-BP, and control compound were used to study the effects on cell migration via wound healing assay. […] Both JM3A-BP monomer and control compounds had no effect on cell migration.

H460 cells = test: colony formation assay; type: cell-based; conditions: for colony formation: 7 days, at 20 μM
Experimental: FIGS. 23A-23B provide additional data related to the characterization of L2 (D-ala), JM3A-BPD1, and JM3A-BP. […] FIG. 23B provides a quantification of the colonies after a 7-day incubation treatment.
Colony formation is a standard assay to assess the activity of cancer stem cells. When cancer cells are seeded in a low number, normal cancer cells die due to the loss of cell-cell communications while cancer stem cells can survive and form colonies in isolation. Applicant performed colony formation assay on H460 cells to study how L2 (D-ala) can affect cancer stem cells activity. The H460 cells were seeded and treated with L2 (D-ala), JM3A-BPD1, JM3A-BP, and control compounds from day 1. After 7 days of incubation, colonies were carefully counted and plotted.

[3] = tested on: HBEC3^p53,KRAS,cMYC cells; test: on-bead cell binding, transformed cells; type: cell-based, human; conditions: JM3A on tentagel beads, red stained cells, separately and as mixture
Description: (§1) The compound JM3A was resynthesized on tentagel beads and equilibrated with HBEC3^p53,KRAS,cMYC (red stained) cells and HBEC3-KT (green stained) cells separately and also as a mixture.

[4] = molecular target: T2, commercially available vimentin protein (Homo sapiens, UniProt P08670); test: magnetic-bead pulldown and western blot with commercially available vimentin protein; type: binding; conditions: western blot
T2 construct: purchased
T2 sequence (P08670 whole entry): as above
Description: To further confirm of JM3A specificity, the western blot assay was repeated using commercially available vimentin protein (FIG. 10B). […] This JM3A bound band disappeared when this binding was competed (blocked) with 10× free JM3A, and 5× free vimentin antibody. […] The results were further confirmed by running pure protein as reference band and JM3A transformed cells pulldown proteins.

HBEC3-KT cells = test: on-bead cell binding, normal cells; type: cell-based, human; conditions: JM3A on tentagel beads, green stained cells, separately and as mixture
Description: as §1

[5] = tested on: vimentin expressing cells; test: magnetic bead pulldown of cells with quantification; type: cell-based, human; conditions: HBEC3^p53,KRAS,cMYC vs HBEC3-KT; NAD(P)H, dityrosine, MTS readout
Experimental: JM3A can be utilized as an early cancer biomarker to develop simple diagnostic tools such as reading the cells auto fluorescence markers or quantifying the cells using MTS assay. Applicant performed the pulldown assay using JM3A to HBEC3-KT and HBEC3^p53,KRAS,cMYC cells. The Biotin-JM3A compound was mounted on streptavidin coated magnetic beads and 1 million cells (HBEC3-KT and HBEC3^p53,KRAS,cMYC cells each) were incubated for 1 hour. Next, bound cells were pulled using magnet.
The difference of number of cells pulled down were quantified for NAD (P) H (FIG. 11A) and Dityrosine (FIG. 11B) expression. Also to the pulldown cells MTS reagent was added and number of cells were quantified (FIG. 11C).

vimentin [6] = molecular target: T1, vimentin; test: immunohistochemical detection of vimentin in tissues; design: from tissue; host or cells: human early cancer tissue and normal tissue cross-sections; conditions: IHC
Experimental: In a more clinically applicable set up, Applicant detected vimentin expression using JM3A in early cancer tissues from human samples using immunohistochemistry (IHC) experiments. Biotin-JM3A was incubated with those tumor tissue cross-sections compared to normal tissues for 1 hour and visualized by streptavidin Q-dots 655 under fluorescent microscope using Long-pass filter (FIG. 11D).

vimentin [7] = molecular target: T1, vimentin; test: cross-linking, magnetic-bead pulldown and western blot on cells; type: binding; design: from tissue; host or cells: human early cancer tissue and normal tissue cross-sections; conditions: western blot
Experimental: For pulldown assay, the JM3A compound was synthesized with Biotin on C-terminal and benzophenone on its N-terminal (FIG. 7A). The compound was first mounted on streptavidin magnetic beads, followed by incubation of the cells HBEC3^p53,KRAS,cMYC and HBEC3-KT for 1 hour. Bound cells were separated using magnetic beads and cross-linked using UV. The cells were then lysed, and the proteins were separated by electrophoresis and visualized by silver staining (FIG. 7B). The unique band at around 60 kDa in the JM3A-bound sample, which was not present in whole cell lysis of HBEC3-KT cells or in the Control-PC462 compound pulldown, was analyzed by standard proteomics technique.
To reconfirm the JM3A-vimentin interaction, western blot analysis of samples from cross-linking and magnetic-bead pulldown assay with normal cells (HBEC3-KT) and transformed cells (HBEC3^p53,KRAS,cMYC) were performed (FIG. 10A). Pulldown assay was performed on normal and transformed cells using JM3A and control PC462. All the pulldown fractions were run on western-blot and compared with whole-cell lysis of HBEC3-KT and HBEC3^p53,KRAS,cMYC cells.

[8] = molecular target: Vimentin protein (His-tag) (Homo sapiens, UniProt P08670); test: on bead protein binding assay; conditions: anti-His Alexa 647 detection
Vimentin protein (His-tag), sequence (P08670 whole entry): as above
Experimental: To reconfirm the JM3A-vimentin interaction, an on bead protein binding assay was performed. Vimentin protein (His-tag) was screened with compound JM3A (on tentagel beads) and visualized using a secondary antibody (Anti-His Alexa 647) (FIG. 9A).

[9] = tested on: normal bronchial epithelial HBEC3KT cells; test: MTS assay on normal bronchial epithelial cells; type: cell-based, human
Description: (§2) In order to investigate the broader applicability of vimentin targeting in NSCLC cells, Applicant performed the same MTS studies on different lung cancer models with various vimentin expressions. These cell lines included H460 (Carcinoma, large cell lung cancer), H2009 (Adenocarcinoma, Stage 4), H358 (Bronchioalveolar Carcinoma, NSCLC), H2122 (Adenocarcinoma, NSCLC), and normal bronchial epithelial HBEC3KT cells.

H2009 = test: MTS assay on H2009 cells; type: cell-based; conditions: H2009, vimentin moderate expression
Description: as §2

H358 = test: MTS assay on H358 cells; type: cell-based; conditions: H358, vimentin moderate expression
Description: as §2

H2122 = test: MTS assay on H2122 cells; type: cell-based; conditions: H2122, vimentin low expression
Description: as §2

H460 = test: MTS assay on H460 cells; type: cell-based; conditions: H460, vimentin high expression
Description: as §2

H1299 cells [10] = type: cell-based
Experimental: Next, Applicant evaluated the anti-proliferative activity of these peptoid dimers via standard MTS assays on non-small cell lung cancer (NSCLC) H1299 cells, which have high vimentin expression.
After 18 hours, the activity reached the maximum (IC50˜6 μM) (FIG. 21C).

Structure (SMILES): COCCN(CC(=O)NC(CCCCN)C(=O)NC(CCSC)C(N)=O)C(=O)CN(C)C(=O)CN(CC(C)C)C(=O)CN(CCCCN)C(=O)CN(CCCCN)C(=O)CN(C)C(=O)CNc1ccc(C(=O)c2ccccc2)cc1 (stereo not shown) [JM3A-4,8-BP] (H-[N(4-BzPh)Gly][Sar][Nlys][Nlys][Nleu][Sar][Nme]KM-NH2; configuration not given here)
- binding to vimentin (in words) (vimentin [1]; comparison of derivatives): highest binding affinity

Structure (SMILES): COCCN(CC(=O)NC(CCCCN)C(=O)NC(CCSC)C(=O)NCCCCC(NC(=O)C(CCSC)NC(=O)C(CCCCN)NC(=O)CN(CCOC)C(=O)CN(Cc1ccc2c(c1)OCO2)C(=O)CN(CC(C)C)C(=O)CN(CCCCN)C(=O)CN(CCCCN)C(=O)CN(CC(C)C)C(=O)CNc1ccc(C(=O)c2ccccc2)cc1)C(N)=O)C(=O)CN(Cc1ccc2c(c1)OCO2)C(=O)CN(CC(C)C)C(=O)CN(CCCCN)C(=O)CN(CCCCN)C(=O)CN(CC(C)C)C(=O)CNc1ccc(C(=O)c2ccccc2)cc1 (stereo not shown) [JM3A-BPD1] (I: H-[N(4-BzPh)Gly][Nleu][Nlys][Nlys][Nleu][Gly(N-piperonyl)][Nme]KMK-NH2 / II: H-[N(4-BzPh)Gly][Nleu][Nlys][Nlys][Nleu][Gly(N-piperonyl)][Nme]KM; amide I:10-II:C; configuration not given here)
- inhibition of cell migration (H1299 cells [2]): moderately inhibit
- colony formation (H460 cells): some colony disruption

Structure (SMILES): COCCN(CC(=O)NC(CCCCN)C(=O)NC(CCSC)C(N)=O)C(=O)CN(Cc1ccc2c(c1)OCO2)C(=O)CN(CC(C)C)C(=O)CN(CCCCN)C(=O)CN(CCCCN)C(=O)CNCC(C)C (stereo not shown) [JM3A] (H-[Nleu][Nlys][Nlys][Nleu][Gly(N-piperonyl)][Nme]KM-NH2; configuration not given here)
- binding of beads to cells [3]: bound only to red stained cells
- interaction with and pulldown of vimentin protein [4]: strong interaction and pulldown of vimentin protein
- binding of beads to cells (HBEC3-KT cells): not to green stained cells
- pulldown of vimentin expressing cells [5]: can be pulled down
- detection of vimentin overexpression (vimentin [6]; early cancer tissues): present
- detection of vimentin overexpression (vimentin [6]; normal tissues): absent
- pulldown of vimentin protein (vimentin [7]; normal cells (HBEC3-KT)): not in normal cells
- pulldown of vimentin protein (vimentin [7]; transformed cells (HBEC3^p53,KRAS,cMYC)): pulldown only with JM3A in transformed cells
- binding of histidine-tagged vimentin to on-bead compound [8]: showed binding

Structure (SMILES): COCCN(CC(=O)N[C@@H](CCCCN)C(=O)N[C@H](C)C(=O)NCC(=O)NCCCC[C@H](NC(=O)CNC(=O)[C@@H](C)NC(=O)[C@H](CCCCN)NC(=O)CN(CCOC)C(=O)CN(Cc1ccc2c(c1)OCO2)C(=O)CN(CC(C)C)C(=O)CN(CCCCN)C(=O)CN(CCCCN)C(=O)CN(CC(C)C)C(=O)CNc1cccc(C(=O)c2ccccc2)c1)C(N)=O)C(=O)CN(Cc1ccc2c(c1)OCO2)C(=O)CN(CC(C)C)C(=O)CN(CCCCN)C(=O)CN(CCCCN)C(=O)CN(CC(C)C)C(=O)CNc1ccc(C(=O)c2ccccc2)cc1 [L2 (D-ala)] (I: H-[X1][Nleu][Nlys][Nlys][Nleu][Gly(N-piperonyl)][Nme]K[dA]GK-NH2 / II: H-[N(4-BzPh)Gly][Nleu][Nlys][Nlys][Nleu][Gly(N-piperonyl)][Nme]K[dA]G; amide I:11-II:C; N-terminus and C-terminus assumed)
- anti-proliferation activity (in words) [9]: inactivity
- Kd improvement relative to JM3A-BPD1 (vimentin [1]; 10 nM to 10 μM): approximately 10 times
- anti-proliferation activity (in words) (H2009): medium activity
- anti-proliferation activity (in words) (H358): medium activity
- anti-proliferation activity (in words) (H2122): lowest activity
- concentration from which cell migration is inhibited (H1299 cells [2]): 3 µM
- inhibition of cell migration (H1299 cells [2]): significantly inhibit
- anti-proliferation activity (in words) (H460): best activity
- concentration from which colony formation is disrupted (H460 cells; 7 days of incubation): 1 µM
- colony formation (H460 cells): inhibit all colonies
- effect of extension of treatment time on proliferation (H1299 cells [10]; H1299 cells, after 18 hours): no significant impact
- anti-proliferation potency (in words) (H1299 cells [10]; H1299 cells, treatment 6 hours): improvement in potency

Structure (SMILES): COCCN(CC(=O)N[C@@H](CCCCN)C(=O)N[C@@H](CCSC)C(=O)NCC(=O)NCCCC[C@H](NC(=O)CNC(=O)[C@H](CCSC)NC(=O)[C@H](CCCCN)NC(=O)CN(CCOC)C(=O)CN(Cc1ccc2c(c1)OCO2)C(=O)CN(CC(C)C)C(=O)CN(CCCCN)C(=O)CN(CCCCN)C(=O)CN(CC(C)C)C(=O)CNc1ccc(C(=O)c2ccccc2)cc1)C(N)=O)C(=O)CN(Cc1ccc2c(c1)OCO2)C(=O)CN(CC(C)C)C(=O)CN(CCCCN)C(=O)CN(CCCCN)C(=O)CN(CC(C)C)C(=O)CNc1ccc(C(=O)c2ccccc2)cc1 [L2] (I: H-[N(4-BzPh)Gly][Nleu][Nlys][Nlys][Nleu][Gly(N-piperonyl)][Nme]KMGK-NH2 / II: H-[N(4-BzPh)Gly][Nleu][Nlys][Nlys][Nleu][Gly(N-piperonyl)][Nme]KMG; amide I:11-II:C)
- IC50 (H1299 cells [10]): ~6 µM
